We go through one substance from patent US11820782B2, “Salt forms of amino pyrazine purine based selective kinase inhibitor” (FTG BIO LLC, priority 2018, dated 2023).

Data set [1] can be described thus: Equilibrium solubility in pH 6.8 0.01M phosphate buffer by HPLC. It counts as physicochemical. Conditions: pH6.8 0.01M potassium dihydrogen phosphate buffer.
The nature of data set [2]: 1 week stability of shortlisted salts at 40° C./75% RH, open. It counts as physicochemical. The conditions noted are these: after 7 days at 40° C./75% RH, open.

In the case of Fumarate, the “Solubility in pH 6.8 buffer” value in data set [1] came to 2.62 mg/mL. The “% purity” value in data set [2] (HPLC) came to 95.81%. In addition, in data set [2] (physical form vs initial), the XRD result was “Same as initial form”.
